Measurements taken from patent publication US20220041623A1, “INDOLE MACROCYCLIC DERIVATIVE, PREPARATION METHOD THEREOF AND APPLICATION THEREOF IN MEDICINE” (JIANGSU HENGRUI MEDICINE CO., LTD., priority 2018, published 2022).

Experiments:
2C19 = biological target: T1, 2C19 (Homo sapiens, UniProt P33261); test: Inhibition of human liver microsomal P450 subenzyme CYP2C19; type: in vitro ADME; conditions: human liver microsomes, (S)-mephenytoin metabolic site, 30 minutes incubation
T1 construct: Human liver microsomes (Corning Gentest, Cat No. 452161, Lot No. 6123001, 33 Donors); tissue Corning Gentest 452161; host or cells: human liver microsomes, pool of 33 donors
Method: (§1) The inhibition effect of the compound of the present invention on the enzymatic activity of human liver microsomal P450 subenzymes CYP2C9 and 2C19 was determined by the following experimental method.
(§2) 6. CYP probe substrate for 2C9 (Diclofenac/4 μM, SIGMA, Cat No. D6899-10G) and CYP probe substrate for 2C19 ((S)-Mephenytoin/20 μM, J&K Scientific Ltd., CatNo. 303768); positive control inhibitor for 2C9 ([…], SIGMA, Cat No. 526-08-9) and positive control inhibitor for 2C19 (Ticlopidine, SIGMA, Cat No. T6654-1G).
(§3) 100 mM PBS buffer solution was formulated. 2.5 mg/mL microsome solution, 15 mM MgCl2 solution and 5 mM NADPH solution were formulated with the buffer solution. 30 mM stock solution was diluted with DMSO into a serial solution I with concentrations of 10 mM, 3 mM, 1 mM, 0.3 mM, 0.1 mM, 0.03 mM, […] and 0 mM. The above serial solution I was diluted for 200 times with the phosphate buffer solution (PBS) to obtain a serial test solution II (150, 50, 15, 5, 1.5, 0.15, 0.015, 0 μM). […]
(§4) The data were calculated by Graphpad Prism to obtain the IC50 values of the compound for the diclofenac metabolic site of CYP2C9 and (S)-mephenytoin metabolic site of 2C19. which are shown in Table 3.

CYP2C9 = biological target: T2, CYP2C9 (Homo sapiens, UniProt P11712); test: Inhibition of human liver microsomal P450 subenzyme CYP2C9; type: in vitro ADME; conditions: human liver microsomes, diclofenac metabolic site, 30 minutes incubation; read-out: 2C9 IC50
T2 construct: Human liver microsomes (Corning Gentest, Cat No. 452161, Lot No. 6123001, 33 Donors); tissue Corning Gentest 452161; host or cells: human liver microsomes, pool of 33 donors
Method: as §1, §2, §3, §4

MV-4-11 cells = test: Cell proliferation experiment (intracellular ATP, CellTiter-Glo), MV-4-11; type: cell-based; conditions: Homo sapiens, MV4-11, 72 h; MV-4-11 cells, incubated 3 days, CellTiter-Glo; read-out: MV-4-11 IC50
Method: (§5) The following method evaluates the inhibition effect of the compound of the present invention on the proliferation of AMO-1 and MV-4-11 cells according to IC50 value by detecting intracellular ATP content. The experimental method is briefly described as follows.
(§6) AMO-1 cells were cultured in RPMI1640 medium (containing 20% FBS), and MV-4-11 cells were cultured in IMDM medium (containing 10% FBS). The cells were passaged for 2 to 3 times a week, with a passage ratio of 1:4 or 1:6. During the passage, the cells were transferred to a centrifuge tube and centrifuged at 1200 rpm for 3 minutes. The supernatant was discarded, and fresh medium was added to resuspend the cells. […] 100 μL of complete medium was added to the periphery of the 96-well plate. The plate was incubated in an incubator for 24 hours (37° C., 5% CO2).
(§7) The test sample was diluted to 20 mM with DMSO, and then diluted to 9 concentrations by diluting in 4-fold gradient. Blank and control wells were set. 5 μL of the test compound solution formulated as gradient concentration was added to 95 μL of fresh medium. 10 µL of the above drug-containing medium solution was added to the plate. The plate was incubated in an incubator for 3 days (37° C., 5% CO2). In the 96-well cell culture plate, 50 μL of CellTiter-Glo reagent was added to each well, and the plate was left to stand in the dark at room temperature for 5 to 10 minutes. The chemiluminescence signal value was read in PHERAstar, and the data was processed by GraphPad software.

MCL-1 protein = biological target: T3, MCL-1 protein (Homo sapiens, UniProt Q07820); test: MCL-1 protein binding experiment (HTRF, MCL-1/Bim)
T3 construct: Bim peptide bought from R&D, 3526/1 NA
Method: The following method was used to determine the binding ability of the compound of the present invention to MCL-1 protein. The experimental method is briefly described as follows.
MCL-1 inhibitors can bind to MCL-1 protein to prevent the binding of MCL-1 to Bim protein. The experiment evaluates the binding ability of MCL-1 inhibitor to MCL-1 protein by detecting the binding of MCL-1 to Bim protein through HTRF method, and the activity of the compound was evaluated according to the Ki value.
The mixture was incubated at room temperature for 2 hours, followed by the detection of fluorescence signals at 620 nm and 665 nm by PHERAstar. The data was processed by GraphPad software.

AMO-1 cells = test: Cell proliferation experiment (intracellular ATP, CellTiter-Glo), AMO-1; type: cell-based; conditions: Homo sapiens, AMO1, 72 h; AMO-1 cells, incubated 3 days, CellTiter-Glo; read-out: AMO-1 IC50
Method: as §5
1. AMO-1, human bone marrow plasmacytoma (Nanjing Cobioer Biosciences Co., Ltd., CBP60242)
as §6, §7

T3 sequence (Q07820 171-327): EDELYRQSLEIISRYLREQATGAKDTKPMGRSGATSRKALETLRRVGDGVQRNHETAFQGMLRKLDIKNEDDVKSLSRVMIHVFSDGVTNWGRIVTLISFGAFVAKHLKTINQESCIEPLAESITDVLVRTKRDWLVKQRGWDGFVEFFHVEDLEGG
T2 sequence (P11712 whole entry): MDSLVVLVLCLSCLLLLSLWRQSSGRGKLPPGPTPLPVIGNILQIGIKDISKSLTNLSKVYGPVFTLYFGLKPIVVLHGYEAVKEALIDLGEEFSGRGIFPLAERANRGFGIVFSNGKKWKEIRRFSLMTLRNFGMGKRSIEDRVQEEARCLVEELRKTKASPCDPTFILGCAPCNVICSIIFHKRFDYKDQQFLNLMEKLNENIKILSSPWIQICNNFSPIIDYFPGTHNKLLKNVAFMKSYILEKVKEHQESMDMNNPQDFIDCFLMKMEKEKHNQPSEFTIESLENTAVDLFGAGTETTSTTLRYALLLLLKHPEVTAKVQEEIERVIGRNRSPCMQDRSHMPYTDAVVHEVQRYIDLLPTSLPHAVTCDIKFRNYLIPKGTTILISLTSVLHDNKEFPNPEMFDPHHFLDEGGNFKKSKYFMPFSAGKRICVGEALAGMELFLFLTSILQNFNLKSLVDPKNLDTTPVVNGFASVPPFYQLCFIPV
T1 sequence (P33261 whole entry): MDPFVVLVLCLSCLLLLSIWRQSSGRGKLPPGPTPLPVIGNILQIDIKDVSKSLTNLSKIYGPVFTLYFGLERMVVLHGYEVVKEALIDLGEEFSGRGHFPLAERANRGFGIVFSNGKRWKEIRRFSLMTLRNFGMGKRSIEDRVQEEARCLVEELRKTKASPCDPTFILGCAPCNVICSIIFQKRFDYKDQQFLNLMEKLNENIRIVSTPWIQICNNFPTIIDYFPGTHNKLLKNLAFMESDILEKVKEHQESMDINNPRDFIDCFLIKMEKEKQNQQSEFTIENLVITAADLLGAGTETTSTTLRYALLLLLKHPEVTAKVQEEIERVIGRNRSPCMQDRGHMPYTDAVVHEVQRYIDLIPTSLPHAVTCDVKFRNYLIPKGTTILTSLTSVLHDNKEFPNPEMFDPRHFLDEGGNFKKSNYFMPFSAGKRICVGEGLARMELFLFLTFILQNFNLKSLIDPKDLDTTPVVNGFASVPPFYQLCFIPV

Q: How did the IC50 (2C19) turn out when Cc1c(C(=O)O)n2c3ccc(Cl)c(c13)-c1c(nn(C)c1C)CSCc1cc(n(C)n1)CSc1cc3c(c(c1)OCCC2)CCC3 (single isomer, unassigned) [Example 13-1, (Ra)-17-Chloro-5,13,14,22-tetramethyl-28-oxa-2,9-dithia-5,6,12,13,24-pentaazaheptacyclo[27.6.1.1^4,7.0^11,15.0^16,21.0^20,24.0^30,34]heptatriaconta-1(36),4(37),6,11,14,16,18,20,22,29,34-undecaene-23-carboxylic acid] was run?
A: > 30000 nM

Q: What about the IC50 (CYP2C9) of the same molecule?
A: 16600 nM

Q: And the IC50 (MV-4-11 cells)?
A: 26 nM

Q: What about the inhibition at up to 10 µM (MCL-1 protein; HTRF MCL-1/Bim binding, initial concentration 10 μM, read-out: Maximum inhibition rate (%)) of the same molecule?
A: 100%

Q: And the Ki (MCL-1 protein; HTRF, 0.1 nM His-MCL-1, 2.5 nM bio-Bim, room temperature)?
A: 0.16 nM

Q: What about the IC50 (AMO-1 cells) of the same molecule?
A: 26 nM
